Values joined by “and” are separate entries in the source; they are usually repeats but may differ in a detail not shown here. Identical values can stand only once. Like-named read-outs stand apart in the source and are kept apart here.
How the values were obtained:
[1] = molecular target: T1, human KOR (Homo sapiens, UniProt P41145, Y320L); test: cell-based; settings: HEK-293T
T1 construct: expressed in transfected cells; host or cells: HEK 293T (ATCC, CRL-3216)

[2] = molecular target: T2, human KOR (Homo sapiens, UniProt P41145, S211A); test: cell-based; settings: HEK-293T
T2 construct: expressed in transfected cells; host or cells: HEK 293T (ATCC, CRL-3216)

[3] = molecular target: T3, human KOR (Homo sapiens, UniProt P41145, V134A); test: cell-based; settings: HEK-293T
T3 construct: expressed in transfected cells; host or cells: HEK 293T (ATCC, CRL-3216)

[4] = molecular target: human KOR (Homo sapiens, UniProt P41145); test: cell-based
[5] = molecular target: T4, human KOR (Homo sapiens, UniProt P41145, G319L); test: cell-based; settings: HEK-293T
T4 construct: expressed in transfected cells; host or cells: HEK 293T (ATCC, CRL-3216)

[6] = molecular target: KOR K227A (Homo sapiens, UniProt P41145, K227A); type: cell-based; parameters: TEV cleavage site (C); tTA transcription factor (C); expressed in transfected cells; host or cells: HTLA cells; settings: Log [Drug]
[7] = molecular target: T5, human KOR (GoB) (Homo sapiens, UniProt P41145, F114L); test: cell-based; settings: HEK-293T
T5 construct: expressed in transfected cells; host or cells: HEK293T

[8] = molecular target: T6, human KOR (GoB) (Homo sapiens, UniProt P41145, Q115N); test: cell-based; settings: HEK-293T
T6 construct: expressed in transfected cells; host or cells: HEK293T

[9] = molecular target: T7, human KOR (GoB) (Homo sapiens, UniProt P41145, E297A); test: cell-based; settings: HEK-293T
T7 construct: expressed in transfected cells; host or cells: HEK293T

[10] = molecular target: T8, human KOR (GoB) (Homo sapiens, UniProt P41145, L253A); test: cell-based; settings: HEK-293T
T8 construct: expressed in transfected cells; host or cells: HEK293T

[11] = molecular target: T9, human KOR (GoB) (Homo sapiens, UniProt P41145, F283A); test: cell-based; settings: HEK-293T
T9 construct: expressed in transfected cells; host or cells: HEK293T

[12] = molecular target: T10, human KOR (GoB) (Homo sapiens, UniProt P41145, R274A); test: cell-based; settings: HEK-293T
T10 construct: expressed in transfected cells; host or cells: HEK293T

[13] = molecular target: T11, human KOR (GoB) (Homo sapiens, UniProt P41145, R170A); test: cell-based; settings: HEK-293T
T11 construct: expressed in transfected cells; host or cells: HEK293T

[14] = molecular target: T12, human KOR (GoB) (Homo sapiens, UniProt P41145, D105A); test: cell-based; settings: HEK-293T
T12 construct: expressed in transfected cells; host or cells: HEK293T

[15] = molecular target: T13, human KOR (GoB) (Homo sapiens, UniProt P41145, T94V); test: cell-based; settings: HEK-293T
T13 construct: expressed in transfected cells; host or cells: HEK293T

[16] = molecular target: T14, human KOR (GoB) (Homo sapiens, UniProt P41145, K200A); test: cell-based; settings: HEK-293T
T14 construct: expressed in transfected cells; host or cells: HEK293T

[17] = molecular target: T15, human KOR (GoB) (Homo sapiens, UniProt P41145); test: cell-based
T15 construct: expressed in transfected cells; host or cells: HEK293T

[18] = molecular target: T16, human KOR (GoB) (Homo sapiens, UniProt P41145, Y320L); test: cell-based; settings: HEK-293T
T16 construct: expressed in transfected cells; host or cells: HEK293T

[19] = molecular target: T17, human KOR (GoB) (Homo sapiens, UniProt P41145, K227A); test: cell-based; settings: HEK-293T
T17 construct: expressed in transfected cells; host or cells: HEK293T

[20] = molecular target: T18, human KOR (GoB) (Homo sapiens, UniProt P41145, G319L); test: cell-based; settings: HEK-293T
T18 construct: expressed in transfected cells; host or cells: HEK293T

[21] = molecular target: T19, human KOR (GoB) (Homo sapiens, UniProt P41145, N326A); test: cell-based; settings: HEK-293T
T19 construct: expressed in transfected cells; host or cells: HEK293T

[22] = molecular target: T20, human KOR (GoB) (Homo sapiens, UniProt P41145, N322A); test: cell-based; settings: HEK-293T
T20 construct: expressed in transfected cells; host or cells: HEK293T

[23] = molecular target: T21, human KOR (GoB) (Homo sapiens, UniProt P41145, D155A); test: cell-based; settings: HEK-293T
T21 construct: expressed in transfected cells; host or cells: HEK293T

[24] = molecular target: T22, human KOR (GoB) (Homo sapiens, UniProt P41145, D334A); test: cell-based; settings: HEK-293T
T22 construct: expressed in transfected cells; host or cells: HEK293T

[25] = molecular target: T23, human KOR (GoB) (Homo sapiens, UniProt P41145, R257A); test: cell-based; settings: HEK-293T
T23 construct: expressed in transfected cells; host or cells: HEK293T

[26] = molecular target: T24, human KOR (GoB) (Homo sapiens, UniProt P41145, N141A); test: cell-based; settings: HEK-293T
T24 construct: expressed in transfected cells; host or cells: HEK293T
T24 sequence (P41145 whole entry N141A): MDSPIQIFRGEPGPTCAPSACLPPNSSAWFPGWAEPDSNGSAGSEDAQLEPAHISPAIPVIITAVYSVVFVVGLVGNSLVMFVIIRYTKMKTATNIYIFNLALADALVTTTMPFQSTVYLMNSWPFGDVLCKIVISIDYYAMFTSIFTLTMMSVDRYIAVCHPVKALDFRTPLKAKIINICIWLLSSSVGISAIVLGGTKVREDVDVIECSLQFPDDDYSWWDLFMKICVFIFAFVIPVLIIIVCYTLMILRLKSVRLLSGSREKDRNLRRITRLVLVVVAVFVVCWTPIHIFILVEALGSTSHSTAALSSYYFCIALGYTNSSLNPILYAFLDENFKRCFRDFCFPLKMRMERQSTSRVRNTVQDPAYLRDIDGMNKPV

T2 sequence (P41145 whole entry S211A): as the sequence (P41145 whole entry N141A) above, with A141N, S211A counted along it
T4 sequence (P41145 whole entry G319L): as the sequence (P41145 whole entry N141A) above, with A141N, G319L counted along it
T3 sequence (P41145 whole entry V134A): as the sequence (P41145 whole entry N141A) above, with V134A, A141N counted along it
KOR K227A, sequence (P41145 whole entry K227A): as the sequence (P41145 whole entry N141A) above, with A141N, K227A counted along it
KOR K227A, sequence (P32121 whole entry partner): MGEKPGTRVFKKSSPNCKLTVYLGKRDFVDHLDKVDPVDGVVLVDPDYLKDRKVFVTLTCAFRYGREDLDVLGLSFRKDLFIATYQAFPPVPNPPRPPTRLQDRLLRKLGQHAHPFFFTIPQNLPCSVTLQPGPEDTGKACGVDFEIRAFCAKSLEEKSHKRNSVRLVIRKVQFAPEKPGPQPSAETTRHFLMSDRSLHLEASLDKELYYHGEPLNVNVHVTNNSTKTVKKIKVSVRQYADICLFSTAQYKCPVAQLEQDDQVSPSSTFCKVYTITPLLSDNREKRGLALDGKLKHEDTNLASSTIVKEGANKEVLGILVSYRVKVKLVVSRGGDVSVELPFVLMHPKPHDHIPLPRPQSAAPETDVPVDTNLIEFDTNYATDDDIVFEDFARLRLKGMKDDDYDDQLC
T1 sequence (P41145 whole entry Y320L): as the sequence (P41145 whole entry N141A) above, with A141N, Y320L counted along it
T15 sequence (P41145 whole entry): as the sequence (P41145 whole entry N141A) above, with A141N counted along it
T20 sequence (P41145 whole entry N322A): as the sequence (P41145 whole entry N141A) above, with A141N, N322A counted along it
T12 sequence (P41145 whole entry D105A): as the sequence (P41145 whole entry N141A) above, with D105A, A141N counted along it
T14 sequence (P41145 whole entry K200A): as the sequence (P41145 whole entry N141A) above, with A141N, K200A counted along it
T9 sequence (P41145 whole entry F283A): as the sequence (P41145 whole entry N141A) above, with A141N, F283A counted along it
T8 sequence (P41145 whole entry L253A): as the sequence (P41145 whole entry N141A) above, with A141N, L253A counted along it
T7 sequence (P41145 whole entry E297A): as the sequence (P41145 whole entry N141A) above, with A141N, E297A counted along it
T13 sequence (P41145 whole entry T94V): as the sequence (P41145 whole entry N141A) above, with T94V, A141N counted along it
human KOR (Homo sapiens, UniProt P41145), sequence (P41145 whole entry): as the sequence (P41145 whole entry N141A) above, with A141N counted along it
T18 sequence (P41145 whole entry G319L): as the sequence (P41145 whole entry N141A) above, with A141N, G319L counted along it
T23 sequence (P41145 whole entry R257A): as the sequence (P41145 whole entry N141A) above, with A141N, R257A counted along it
T22 sequence (P41145 whole entry D334A): as the sequence (P41145 whole entry N141A) above, with A141N, D334A counted along it
T21 sequence (P41145 whole entry D155A): as the sequence (P41145 whole entry N141A) above, with A141N, D155A counted along it
T11 sequence (P41145 whole entry R170A): as the sequence (P41145 whole entry N141A) above, with A141N, R170A counted along it
T19 sequence (P41145 whole entry N326A): as the sequence (P41145 whole entry N141A) above, with A141N, N326A counted along it
T6 sequence (P41145 whole entry Q115N): as the sequence (P41145 whole entry N141A) above, with Q115N, A141N counted along it
T17 sequence (P41145 whole entry K227A): as the sequence (P41145 whole entry N141A) above, with A141N, K227A counted along it
T16 sequence (P41145 whole entry Y320L): as the sequence (P41145 whole entry N141A) above, with A141N, Y320L counted along it
T10 sequence (P41145 whole entry R274A): as the sequence (P41145 whole entry N141A) above, with A141N, R274A counted along it
T5 sequence (P41145 whole entry F114L): as the sequence (P41145 whole entry N141A) above, with F114L, A141N counted along it

CN(C(=O)/C=C/c1ccoc1)[C@@H]1CC[C@@]2(O)[C@H]3Cc4ccc(O)c5c4[C@@]2(CCN3CC2CC2)[C@H]1O5 [Nalfurafine, nalfurafine]
Emax [1]: 105 ± 2%
activation at 1 pM ([1]; read-out: cAMP response): 16.5%
activation at 3.162 pM ([1]; read-out: cAMP response): 13.2%
activation at 10 pM ([1]; read-out: cAMP response): 16.1%
activation at 31.62 pM ([1]; read-out: cAMP response): 35.7%
activation at 0.0001 µM ([1]; read-out: cAMP response): 59%
activation at 0.001 µM ([1]; read-out: cAMP response): 95.7%
activation at 0.01 µM ([1]; read-out: cAMP response): 103%
activation at 0.1 µM ([1]; read-out: cAMP response): 105%
activation at 1 µM ([1]; read-out: cAMP response): 105%
activation at […] ([1]; read-out: cAMP response): 78.6% and 99.7% and 105% (2×)
Emax [2]: 107 ± 2%
activation at 1 pM ([2]; read-out: cAMP response): 16.4%
activation at 3.162 pM ([2]; read-out: cAMP response): 71%
activation at 10 pM ([2]; read-out: cAMP response): 91.3%
activation at 31.62 pM ([2]; read-out: cAMP response): 99.8%
activation at 0.0001 µM ([2]; read-out: cAMP response): 106%
activation at 0.001 µM ([2]; read-out: cAMP response): 107%
activation at 0.01 µM ([2]; read-out: cAMP response): 108%
activation at 0.1 µM ([2]; read-out: cAMP response): 107%
activation at 1 µM ([2]; read-out: cAMP response): 103%
activation at […] ([2]; read-out: cAMP response): 107% (2×) and 105% and 104%
Emax [3]: 93 ± 3%
activation at 3.162 pM ([3]; read-out: cAMP response): 23.5%
activation at 10 pM ([3]; read-out: cAMP response): 48.2%
activation at 31.62 pM ([3]; read-out: cAMP response): 53.1%
activation at 0.0001 µM ([3]; read-out: cAMP response): 62.8%
activation at 0.001 µM ([3]; read-out: cAMP response): 82.5%
activation at 0.01 µM ([3]; read-out: cAMP response): 96.2%
activation at 0.1 µM ([3]; read-out: cAMP response): 104%
activation at 1 µM ([3]; read-out: cAMP response): 96.6%
activation at […] ([3]; read-out: cAMP response): 58.2% and 90% and 99.4% and 95.7%
reduction of potency [4]: 5 fold
Emax [5]: 103 ± 4%
activation at 1 pM ([5]; read-out: cAMP response): 18.4%
activation at 31.62 pM ([5]; read-out: cAMP response): 24%
activation at 0.0001 µM ([5]; read-out: cAMP response): 46%
activation at 0.001 µM ([5]; read-out: cAMP response): 62.9%
activation at 0.01 µM ([5]; read-out: cAMP response): 94.9%
activation at 0.1 µM ([5]; read-out: cAMP response): 107%
activation at 1 µM ([5]; read-out: cAMP response): 104%
activation at […] ([5]; read-out: cAMP response): 44.6% and 75.9% and 100%
KOR K227A_Arrestin response (Figure S4D) ([6]; M -6, replicate values): 101.315 and 102.717
KOR K227A_Arrestin response (Figure S4D) ([6]; M -6.5, replicate values): 105.822 and 93.8848 and 97.1199
KOR K227A_Arrestin response (Figure S4D) ([6]; M -7, replicate values): 91.3062 and 96.8492 and 89.7833
KOR K227A_Arrestin response (Figure S4D) ([6]; M -7.5, replicate values): 70.8658 and 86.1016
KOR K227A_Arrestin response (Figure S4D) ([6]; M -8, replicate values): 84.9439 and 77.9998
KOR K227A_Arrestin response (Figure S4D) ([6]; M -8.5, replicate values): 65.7403 and 77.6179 and 69.9994
KOR K227A_Arrestin response (Figure S4D) ([6]; M -9, replicate values): 59.6373 and 67.8004 and 59.0282
KOR K227A_Arrestin response (Figure S4D) ([6]; M -9.5, replicate values): 49.3052 and 47.5598 and 61.4935
KOR K227A_Arrestin response (Figure S4D) ([6]; M -10, replicate values): 39.6619 and 44.8012 and 31.3899
KOR K227A_Arrestin response (Figure S4D) ([6]; M -10.5, replicate values): 20.4503 and 25.5006 and 21.705
KOR K227A_Arrestin response (Figure S4D) ([6]; M -11, replicate values): 23.8027 and 10.0134 and 11.9765
KOR K227A_Arrestin response (Figure S4D) ([6]; M -12, replicate values): 12.7008 and 13.5043
KOR K227A_Arrestin response (Figure S4D) ([6]; M -12.5, replicate values): 6.071 and 3.454 and 8.161
KOR K227A_Arrestin response (Figure S4D) ([6]; M -13, replicate values): 5.581 and 8.377 and 4.789
KOR K227A_Arrestin response (Figure S4D) ([6]; M -14, replicate values): 0.5358 and 5.464 and 0.3918
Emax [7]: 77.5%
Emax [8]: 80.5%
Emax [9]: 103%
Emax [10]: 107%
Emax [11]: 91%
Emax [12]: 101%
Emax [13]: 87.8%
Emax [14]: 91%
Emax [15]: 100%
Emax [16]: 98.3%
Emax% [17]: 99.55%
Emax ([17]; HEK-293T): 99.8%
Emax [18]: 76%
Emax [19]: 94.3%
Emax [20]: 108%
Emax [21]: 93.6%
Emax [22]: 87.1%
Emax [23]: 99%
Emax [24]: 91.1%
Emax [25]: 99.6%
Emax [26]: 98.7%

Reference: paper PMC10008561 (Nature Communications, 2023)
